Laboratory results: patent US12448392B2, “Spiropiperidine derivatives” (89BIO LTD, priority 2016, dated 2025)
Like-named read-outs stand apart in the source and are kept apart here.

Target: T1, recombinant human baculovirus-expressed GST-tagged FASN (Homo sapiens, UniProt P49327)
T1 construct: GST
Test: biochemical

[1] = 5 nM FASN, 150 μM NADPH, 10 μM acetyl-CoA, 25 μM malonyl-CoA, 90 minutes incubation, read-out: IC50 data for Compounds of Formula I, Activity

T1 sequence (P49327 whole entry): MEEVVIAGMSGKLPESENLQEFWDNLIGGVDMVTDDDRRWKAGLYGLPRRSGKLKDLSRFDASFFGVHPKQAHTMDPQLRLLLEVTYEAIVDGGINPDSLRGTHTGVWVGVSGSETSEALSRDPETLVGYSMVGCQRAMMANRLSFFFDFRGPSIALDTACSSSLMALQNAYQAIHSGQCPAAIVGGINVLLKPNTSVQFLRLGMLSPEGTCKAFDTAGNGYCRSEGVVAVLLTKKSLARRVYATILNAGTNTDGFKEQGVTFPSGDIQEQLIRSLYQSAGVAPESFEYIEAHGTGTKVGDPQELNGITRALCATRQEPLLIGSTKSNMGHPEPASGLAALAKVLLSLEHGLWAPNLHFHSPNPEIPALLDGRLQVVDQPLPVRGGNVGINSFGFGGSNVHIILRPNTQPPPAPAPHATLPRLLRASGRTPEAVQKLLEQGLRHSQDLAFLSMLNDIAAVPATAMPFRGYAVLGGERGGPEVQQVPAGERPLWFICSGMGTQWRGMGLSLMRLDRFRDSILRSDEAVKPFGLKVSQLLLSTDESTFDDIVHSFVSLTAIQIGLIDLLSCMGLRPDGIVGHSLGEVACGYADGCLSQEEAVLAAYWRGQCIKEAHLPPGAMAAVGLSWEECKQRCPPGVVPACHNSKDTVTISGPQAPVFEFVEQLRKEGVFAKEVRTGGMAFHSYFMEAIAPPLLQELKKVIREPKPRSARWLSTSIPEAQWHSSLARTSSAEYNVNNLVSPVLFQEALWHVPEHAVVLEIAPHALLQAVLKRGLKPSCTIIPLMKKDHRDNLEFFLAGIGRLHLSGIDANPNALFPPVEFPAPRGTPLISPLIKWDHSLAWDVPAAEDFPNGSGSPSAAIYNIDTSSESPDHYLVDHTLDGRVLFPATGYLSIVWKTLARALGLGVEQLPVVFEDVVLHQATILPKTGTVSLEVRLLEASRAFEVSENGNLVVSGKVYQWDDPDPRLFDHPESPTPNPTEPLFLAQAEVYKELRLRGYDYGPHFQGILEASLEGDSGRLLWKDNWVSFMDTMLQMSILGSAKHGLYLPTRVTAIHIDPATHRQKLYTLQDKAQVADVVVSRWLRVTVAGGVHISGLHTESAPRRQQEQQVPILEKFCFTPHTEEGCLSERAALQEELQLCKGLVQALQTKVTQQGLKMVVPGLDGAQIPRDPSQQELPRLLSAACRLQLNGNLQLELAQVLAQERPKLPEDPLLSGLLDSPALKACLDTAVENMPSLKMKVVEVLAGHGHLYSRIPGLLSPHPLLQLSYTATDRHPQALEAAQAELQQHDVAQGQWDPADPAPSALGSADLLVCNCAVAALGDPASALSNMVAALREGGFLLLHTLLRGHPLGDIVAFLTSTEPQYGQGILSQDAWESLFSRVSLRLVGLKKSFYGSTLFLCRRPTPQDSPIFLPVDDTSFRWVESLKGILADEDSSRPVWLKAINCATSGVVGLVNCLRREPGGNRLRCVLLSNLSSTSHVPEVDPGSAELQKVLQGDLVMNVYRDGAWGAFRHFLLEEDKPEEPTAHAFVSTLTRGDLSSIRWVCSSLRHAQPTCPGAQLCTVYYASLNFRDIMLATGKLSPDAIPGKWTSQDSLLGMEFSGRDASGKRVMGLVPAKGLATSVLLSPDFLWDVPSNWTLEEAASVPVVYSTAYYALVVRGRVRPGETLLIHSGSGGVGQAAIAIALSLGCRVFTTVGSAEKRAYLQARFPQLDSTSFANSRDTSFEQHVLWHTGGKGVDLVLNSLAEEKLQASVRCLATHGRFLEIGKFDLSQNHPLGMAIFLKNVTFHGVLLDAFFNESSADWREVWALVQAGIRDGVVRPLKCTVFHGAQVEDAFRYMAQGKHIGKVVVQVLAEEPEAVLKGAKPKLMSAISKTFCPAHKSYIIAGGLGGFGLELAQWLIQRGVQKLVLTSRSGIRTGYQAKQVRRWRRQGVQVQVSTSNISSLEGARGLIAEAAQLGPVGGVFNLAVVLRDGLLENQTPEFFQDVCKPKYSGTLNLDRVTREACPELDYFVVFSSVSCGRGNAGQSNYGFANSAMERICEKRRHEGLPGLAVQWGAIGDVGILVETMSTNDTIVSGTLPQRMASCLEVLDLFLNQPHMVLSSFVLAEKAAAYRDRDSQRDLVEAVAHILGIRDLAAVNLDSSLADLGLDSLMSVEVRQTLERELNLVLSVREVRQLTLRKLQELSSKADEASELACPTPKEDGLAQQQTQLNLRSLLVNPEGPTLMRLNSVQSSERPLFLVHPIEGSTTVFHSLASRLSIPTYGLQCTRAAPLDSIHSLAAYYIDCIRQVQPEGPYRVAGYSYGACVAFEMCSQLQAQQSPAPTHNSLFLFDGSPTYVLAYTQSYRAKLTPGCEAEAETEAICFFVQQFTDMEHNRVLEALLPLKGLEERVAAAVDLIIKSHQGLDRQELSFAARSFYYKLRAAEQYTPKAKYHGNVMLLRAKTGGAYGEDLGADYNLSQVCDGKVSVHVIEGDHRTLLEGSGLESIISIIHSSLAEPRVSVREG

| Structure (SMILES) | IC50 [1] [nM] | IC50 [nM] |
| --- | --- | --- |
| COc1c(-c2ccc3c(c2)CC2(CCN(C(=O)NOC4CCCCO4)CC2)O3)ccc2cccnc12 (stereo not drawn) [Example 168, 5-(8-Methoxy-7-quinolyl)-N-tetrahydropyran-2-yloxy-spiro[3H-benzofuran-2,4′-piperidine]-1′-carboxamide] | 1000 to 10000 |  |
| CCONC(=O)N1CCC2(CC1)Cc1cc(-c3ccc4ccnn4c3C)ccc1O2 [Example 169, N-Ethoxy-5-(7-methylpyrazolo[1,5-a]pyridin-6-yl)spiro[3H-benzofuran-2,4′-piperidine]-1′-carboxamide] | 1000 to 10000 |  |
| CONC(=O)N1CCC2(CC1)Cc1cc(-c3ccc4ccnn4c3C)ccc1O2 [Example 170, N-Methoxy-5-(7-methylpyrazolo[1,5-a]pyridin-6-yl)spiro[3H-benzofuran-2,4′-piperidine]-1′-carboxamide] | 1000 to 10000 |  |
| Cc1c(-c2ccc3c(c2)CC2(CCN(C(=O)NOC4CCCCO4)CC2)O3)ccc2ccnn12 (stereo not drawn) [Example 171, 5-(7-Methylpyrazolo[1,5-a]pyridin-6-yl)-N-tetrahydropyran-2-yloxy-spiro[3H-benzofuran-2,4′-piperidine]-1′-carboxamide] | 1000 to 10000 |  |
| Cc1c(-c2ccc3c(c2)CCC2(CCN(C(N)=O)CC2)O3)ccc2ccc(=O)[nH]c12 [Example 172, 6-(8-Methyl-2-oxo-1H-quinolin-7-yl)spiro[chromane-2,4′-piperidine]-1′-carboxamide] | 1000 to 10000 |  |
| COc1c(-c2ccc3c(c2)CC2(CCN(C(=O)NO)CC2)O3)ccc2cccnc12 [Example 173, 5-(8-Methoxy-7-quinolyl)spiro[3H-benzofuran-2,4′-piperidine]-1′-carbohydroxamic acid] | 1000 to 10000 |  |
| COc1c(-c2ccc3c(c2)COC2(CCN(C(N)=O)CC2)O3)ccc2cccnc12 [Example 174, 6-(8-Methoxy-7-quinolyl)spiro[4H-1,3-benzodioxine-2,4′-piperidine]-1′-carboxamide] |  | 1 to 99 |
| COc1c(-c2ccc3c(c2)CCC2(CCN(C(N)=O)CC2)O3)ccc2cccnc12 [Example 175, 6-(8-Methoxy-7-quinolyl)spiro[chromane-2,4′-piperidine]-1′-carboxamide] | 1 to 99 |  |
| CCOC(=O)N1CCC2(CC1)OCc1cc(-c3ccc4cccnc4c3OC)ccc1O2 [Example 176, Ethyl 6-(8-methoxy-7-quinolyl)spiro[4H-1,3-benzodioxine-2,4′-piperidine]-1′-carboxylate] |  | 100 to 999 |
| CC(C)CNC(=O)N1CCC2(CCc3cc(-c4ccc5nccn5c4Cl)ccc3O2)CC1 [Example 177, 6-(5-Chloroimidazo[1,2-a]pyridin-6-yl)-N-isobutyl-spiro[chromane-2,4′-piperidine]-1′-carboxamide] | 1 to 99 |  |
| Cc1nccc2cc(-c3ccc4c(c3)CCC3(CCN(C(=O)NCC(C)C)CC3)O4)ccc12 [Example 178, N-Isobutyl-6-(1-methyl-6-isoquinolyl)spiro[chromane-2,4′-piperidine]-1′-carboxamide] | 1 to 99 |  |
| CC(C)ONC(=O)N1CCC2(CCc3cc(-c4ccc5nccn5c4Cl)ccc3O2)CC1 [Example 179, 6-(5-Chloroimidazo[1,2-a]pyridin-6-yl)-N-isopropoxy-spiro[chromane-2,4′-piperidine]-1′-carboxamide] | 1 to 99 |  |
| Cc1nccc2cc(-c3ccc4c(c3)CCC3(CCN(C(=O)NOC(C)C)CC3)O4)ccc12 [Example 180, N-Isopropoxy-6-(1-methyl-6-isoquinolyl)spiro[chromane-2,4′-piperidine]-1′-carboxamide] | 1 to 99 |  |
| CCONC(=O)N1CCC2(CCc3cc(-c4cnc5ccccc5c4C)ccc3O2)CC1 [Example 181, N-Ethoxy-6-(4-methyl-3-quinolyl)spiro[chromane-2,4′-piperidine]-1′-carboxamide] | 1 to 99 |  |
| Cc1nccc2cc(-c3ccc4c(c3)COC3(CCN(C(=O)NOC(C)C)CC3)O4)ccc12 [Example 182, N-Isopropoxy-6-(1-methyl-6-isoquinolyl)spiro[4H-1,3-benzodioxine-2,4′-piperidine]-1′-carboxamide] |  | 1 to 99 |
| Cc1nccc2cc(-c3ccc4c(c3)CCC3(CCN(C(N)=O)CC3)O4)ccc12 [Example 183, 6-(1-Methyl-6-isoquinolyl)spiro[chromane-2,4′-piperidine]-1′-carboxamide] | 100 to 999 |  |
| CONC(=O)N1CCC2(CCc3cc(-c4ccc5c(C)nccc5c4)ccc3O2)CC1 [Example 184, N-methoxy-6-(1-methyl-6-isoquinolyl)spiro[chromane-2,4′-piperidine]-1′-carboxamide] | 1 to 99 |  |
| CCONC(=O)N1CCC2(CCc3cc(-c4ccc5c(C)nccc5c4)ccc3O2)CC1 [Example 185, N-ethoxy-6-(1-methyl-6-isoquinolyl)spiro[chromane-2,4′-piperidine]-1′-carboxamide] | 1 to 99 |  |
| CCCONC(=O)N1CCC2(CCc3cc(-c4ccc5c(C)nccc5c4)ccc3O2)CC1 [Example 186, 6-(1-Methyl-6-isoquinolyl)-N-propoxy-spiro[chromane-2,4′-piperidine]-1′-carboxamide] | 1 to 99 |  |
| CCNC(=O)N1CCC2(CCc3cc(-c4ccc5c(C)nccc5c4)ccc3O2)CC1 [Example 187, N-Ethyl-6-(1-methyl-6-isoquinolyl)spiro[chromane-2,4′-piperidine]-1′-carboxamide] | 1 to 99 |  |

| Structure (SMILES) | IC50 [1] [nM] | IC50 [nM] |
| --- | --- | --- |
| CCCNC(=O)N1CCC2(CCc3cc(-c4ccc5c(C)nccc5c4)ccc3O2)CC1 [Example 188, 6-(1-methyl-6-isoquinolyl)-N-propyl-spiro[chromane-2,4′-piperidine]-1′-carboxamide] | 1 to 99 |  |
| Cc1nccc2cc(-c3ccc4c(c3)CCC3(CCN(C(=O)NO)CC3)O4)ccc12 [Example 189, 6-(1-Methyl-6-isoquinolyl)spiro[chromane-2,4′-piperidine]-1′-carbohydroxamic acid] | 1000 to 10000 |  |
| Cc1c(-c2ccc3c(c2)CCC2(CCN(C(N)=O)CC2)O3)cnc2ccccc12 [Example 190, 6-(4-methyl-3-quinolyl)spiro[chromane-2,4′-piperidine]-1′-carboxamide] | 1 to 99 |  |
| Cc1c(-c2ccc3c(c2)CCC2(CCN(C(=O)NO)CC2)O3)cnc2ccccc12 [Example 191, 6-(4-Methyl-3-quinolyl)spiro[chromane-2,4′-piperidine]-1′-carbohydroxamic acid] | 100 to 999 |  |
| CONC(=O)N1CCC2(CCc3cc(-c4cnc5ccccc5c4C)ccc3O2)CC1 [Example 192, N-Methoxy-6-(4-methyl-3-quinolyl)spiro[chromane-2,4′-piperidine]-1′-carboxamide] | 1 to 99 |  |
| Cc1c(-c2ccc3c(c2)CCC2(CCN(C(=O)NOC(C)C)CC2)O3)cnc2ccccc12 [Example 193, N-isopropoxy-6-(4-methyl-3-quinolyl)spiro[chromane-2,4′-piperidine]-1′-carboxamide] | 1 to 99 |  |
| Cc1nccc2cc(-c3ccc4c(c3)COC3(CCN(C(N)=O)CC3)O4)ccc12 [Example 194, 6-(1-Methyl-6-isoquinolyl)spiro[4H-1,3-benzodioxine-2,4′-piperidine]-1′-carboxamide] |  | 100 to 999 |
| CONC(=O)N1CCC2(CC1)OCc1cc(-c3ccc4c(C)nccc4c3)ccc1O2 [Example 195, N-methoxy-6-(1-methyl-6-isoquinolyl)spiro[4H-1,3-benzodioxine-2,4′-piperidine]-1′-carboxamide] |  | 1 to 99 |
| CCONC(=O)N1CCC2(CC1)OCc1cc(-c3ccc4c(C)nccc4c3)ccc1O2 [Example 196, N-Ethoxy-6-(1-methyl-6-isoquinolyl)spiro[4H-1,3-benzodioxine-2,4′-piperidine]-1′-carboxamide] |  | 1 to 99 |
| CCNC(=O)N1CCC2(CC1)OCc1cc(-c3ccc4c(C)nccc4c3)ccc1O2 [Example 197, N-ethyl-6-(1-methyl-6-isoquinolyl)spiro[4H-1,3-benzodioxine-2,4′-piperidine]-1′-carboxamide] |  | 1 to 99 |
| CCOC(=O)N1CCC2(CC1)OCc1cc(-c3ccc4cnc(Cl)cc4c3)ccc1O2 [Example 198, Ethyl 6-(3-chloro-6-isoquinolyl)spiro[4H-1,3-benzodioxine-2,4′-piperidine]-1′-carboxylate] |  | 1000 to 10000 |
| Cc1nccc2cc(-c3ccc4c(c3)COC3(CCN(C(=O)NO)CC3)O4)ccc12 [Example 199, 6-(1-Methyl-6-isoquinolyl)spiro[4H-1,3-benzodioxine-2,4′-piperidine]-1′-carbohydroxamic acid] |  | 1000 to 10000 |
| CCOC(=O)N1CCC2(CC1)OCc1cc(-c3ccc4cnc(C)cc4c3)ccc1O2 [Example 200, Ethyl 6-(3-methyl-6-isoquinolyl)spiro[4H-1,3-benzodioxine-2,4′-piperidine]-1′-carboxylate] |  | 1000 to 10000 |
| Cc1cc2cc(-c3ccc4c(c3)COC3(CCN(C(N)=O)CC3)O4)ccc2cn1 [Example 201, 6-(3-Methyl-6-isoquinolyl)spiro[4H-1,3-benzodioxine-2,4′-piperidine]-1′-carboxamide] |  | 1000 to 10000 |
| CCNC(=O)N1CCC2(CC1)OCc1cc(-c3ccc4cnc(C)cc4c3)ccc1O2 [Example 202, N-Ethyl-6-(3-methyl-6-isoquinolyl)spiro[4H-1,3-benzodioxine-2,4′-piperidine]-1′-carboxamide] |  | 1 to 99 |
| CCONC(=O)N1CCC2(CC1)OCc1cc(-c3ccc4cnc(C)cc4c3)ccc1O2 [Example 203, N-Ethoxy-6-(3-methyl-6-isoquinolyl)spiro[4H-1,3-benzodioxine-2,4′-piperidine]-1′-carboxamide] |  | 1 to 99 |
| Cc1cc2cc(-c3ccc4c(c3)COC3(CCN(C(=O)NO)CC3)O4)ccc2cn1 [Example 204, 6-(3-Methyl-6-isoquinolyl)spiro[4H-1,3-benzodioxine-2,4′-piperidine]-1′-carbohydroxamic acid] |  | 100 to 999 |
| CONC(=O)N1CCC2(CC1)OCc1cc(-c3ccc4cnc(C)cc4c3)ccc1O2 [Example 205, N-Methoxy-6-(3-methyl-6-isoquinolyl)spiro[4H-1,3-benzodioxine-2,4′-piperidine]-1′-carboxamide] |  | 1 to 99 |
| Cc1cc2cc(-c3ccc4c(c3)CCC3(CCN(C(N)=O)CC3)O4)ccc2cn1 [Example 206, 6-(3-Methyl-6-isoquinolyl)spiro[chromane-2,4′-piperidine]-1′-carboxamide] | 1000 to 10000 |  |
